ChEMBL document CHEMBL4152377, “Design and Activity of Specific Hypoxia-Inducible Factor-2α (HIF-2α) Inhibitors for the Treatment of Clear Cell Renal Cell Carcinoma: Discovery of Clinical Candidate ( S)-3-((2,2-Difluoro-1-hydroxy-7-(methylsulfonyl)-2,3-dihydro-1 H-inden-4-yl)oxy)-5-fluorobenzonitrile (PT2385)” (J Med Chem, 2018)
Activity calls are given as the source filed them. The calls are words filed in the database; no cut-off is given here.

How the values were obtained:
[1] = target: T1, Endothelial PAS domain-containing protein 1 (Homo sapiens, UniProt Q99814)
[2] = target: T1, Endothelial PAS domain-containing protein 1; remark: listed apart in the source
[3] = Clearance in Sprague-Dawley rat at 3 mg/kg, iv by UPLC analysis; assay type: ADME, organism-based; settings: in vivo
[4] = Protein binding in mouse plasma at 10 uM after 4 hrs by LC-MS/MS analysis; assay type: ADME, cell-free; settings: read-out: PPB (converted)
[5] = Oral bioavailability in CD1 mouse at 10 mg/kg by UPLC analysis; assay type: ADME, organism-based; settings: in vivo
[6] = Volume of distribution at steady state in CD1 mouse at 3 mg/kg, iv by UPLC analysis; assay type: ADME, organism-based; settings: in vivo, read-out: Vdss
[7] = system: Mus musculus; assay: In vivo inhibition of HIF-2alpha in SCID/Biege mouse xenografted with human 786-O cells assessed as reduction in VEGFA mRNA levels at 10 mg/kg, po bid for 3 days and measured after 12 hrs post last dose by qRT-PCR analysis; assay type: functional, organism-based
[8] = Clearance in CD1 mouse at 3 mg/kg, iv by UPLC analysis; assay type: ADME, organism-based; settings: in vivo
[9] = system: Mus musculus; assay: Toxicity in SCID/Biege mouse xenografted with human 786-O cells assessed as mortality at 10 mg/kg, po bid for 21 days; assay type: organism-based; settings: in vivo, 504 h
[10] = Apparent permeability across apical to basolateral side in MDCK-MDR1 cells at 1 uM after 1 hr by LC/MS/MS analysis; assay type: ADME, cell-based, Canis lupus familiaris; settings: dog
[11] = system: Mus musculus; assay: Toxicity in SCID/Biege mouse xenografted with human 786-O cells assessed as morbidity at 10 mg/kg, po bid for 21 days; assay type: organism-based; settings: in vivo, 504 h
[12] = Plasma concentration in mouse after 12 hrs; assay type: ADME, cell-free
[13] = Oral bioavailability in Sprague-Dawley rat at 10 mg/kg administered via gavage by UPLC analysis; assay type: ADME, organism-based; settings: in vivo
[14] = system: 786-0; assay: Antitumor activity against human 786-O cells xenografted in SCID/Biege mouse assessed as tumor regression at 10 mg/kg, po bid for 21 days; assay type: functional, organism-based
[15] = Half life in Sprague-Dawley rat at 10 mg/kg, po via gavage by UPLC analysis; assay type: ADME, organism-based; settings: in vivo
[16] = system: Mus musculus; assay: Toxicity in SCID/Biege mouse xenografted with human 786-O cells assessed as effect on body weight at 10 mg/kg, po bid for 21 days; assay type: organism-based; settings: in vivo, 504 h
[17] = AUCt in CD1 mouse at 10 mg/kg, po by UPLC analysis; assay type: ADME, organism-based; settings: in vivo
[18] = Intrinsic clearance in mouse liver microsomes at 1 uM measured up to 30 mins by LC-MS/MS analysis; assay type: ADME, microsome; settings: read-out: CLH
[19] = system: Mus musculus; assay: In vivo inhibition of HIF-2alpha in SCID/Biege mouse xenografted with human 786-O cells assessed as reduction in CCND1 mRNA levels at 10 mg/kg, po bid for 3 days and measured after 12 hrs post last dose by qRT-PCR analysis; assay type: functional, organism-based
[20] = Volume of distribution at steady state in Sprague-Dawley rat at 3 mg/kg, iv by UPLC analysis; assay type: ADME, organism-based; settings: in vivo, read-out: Vdss
[21] = system: Mus musculus; assay: Minimum drug level in SCID/Biege mouse xenografted with human 786-O cells at 10 mg/kg, po bid for 3 days and measured after 12 hrs post last dose by LC-MS/MS analysis; assay type: ADME, organism-based; settings: in vivo
[22] = system: 786-0; assay: In vivo inhibition of HIF-2alpha in SCID/Biege mouse xenografted with human 786-O cells assessed as reduction in tumor derived VEGFA protein levels at 10 mg/kg, po bid for 3 days and measured after 12 hrs post last dose by ELISA; assay type: functional, organism-based
[23] = Half life in CD1 mouse at 10 mg/kg, po by UPLC analysis; assay type: ADME, organism-based; settings: in vivo
[24] = AUCt in Sprague-Dawley rat at 10 mg/kg, po via gavage by UPLC analysis; assay type: ADME, organism-based; settings: in vivo
[25] = system: Rattus norvegicus; assay: Drug level in Sprague-Dawley rat treated with 10 mg/kg, po (R)-3-((4-(Difluoromethyl)-2,2-difluoro-3-hydroxy-1,1-dioxido-2,3-dihydrobenzo[b]thiophen-5-yl)oxy)-5-fluorobenzonitrile assessed as compound formation by UPLC analysis; assay type: ADME, organism-based; settings: in vivo
[26] = target: T1, Endothelial PAS domain-containing protein 1; assay: Antagonist activity at HIF-2alpha in human 786-O cells assessed as reduction in VEGFA concentration after 24 hrs by ELISA; assay type: cell-based
[27] = Efflux ratio of apparent permeability in MDCK-MDR1 cells at 1 uM after 1 hr by LC/MS/MS analysis; assay type: ADME, cell-based, Canis lupus familiaris; settings: dog
[28] = target: T1, Endothelial PAS domain-containing protein 1; assay: Antagonist activity at HIF-2alpha in human 786-O cells assessed as free plasma adjusted EC50 for reduction in VEGFA concentration after 24 hrs by ELISA; assay type: cell-based

T1 sequence (Q99814 whole entry, the tested form may be a part): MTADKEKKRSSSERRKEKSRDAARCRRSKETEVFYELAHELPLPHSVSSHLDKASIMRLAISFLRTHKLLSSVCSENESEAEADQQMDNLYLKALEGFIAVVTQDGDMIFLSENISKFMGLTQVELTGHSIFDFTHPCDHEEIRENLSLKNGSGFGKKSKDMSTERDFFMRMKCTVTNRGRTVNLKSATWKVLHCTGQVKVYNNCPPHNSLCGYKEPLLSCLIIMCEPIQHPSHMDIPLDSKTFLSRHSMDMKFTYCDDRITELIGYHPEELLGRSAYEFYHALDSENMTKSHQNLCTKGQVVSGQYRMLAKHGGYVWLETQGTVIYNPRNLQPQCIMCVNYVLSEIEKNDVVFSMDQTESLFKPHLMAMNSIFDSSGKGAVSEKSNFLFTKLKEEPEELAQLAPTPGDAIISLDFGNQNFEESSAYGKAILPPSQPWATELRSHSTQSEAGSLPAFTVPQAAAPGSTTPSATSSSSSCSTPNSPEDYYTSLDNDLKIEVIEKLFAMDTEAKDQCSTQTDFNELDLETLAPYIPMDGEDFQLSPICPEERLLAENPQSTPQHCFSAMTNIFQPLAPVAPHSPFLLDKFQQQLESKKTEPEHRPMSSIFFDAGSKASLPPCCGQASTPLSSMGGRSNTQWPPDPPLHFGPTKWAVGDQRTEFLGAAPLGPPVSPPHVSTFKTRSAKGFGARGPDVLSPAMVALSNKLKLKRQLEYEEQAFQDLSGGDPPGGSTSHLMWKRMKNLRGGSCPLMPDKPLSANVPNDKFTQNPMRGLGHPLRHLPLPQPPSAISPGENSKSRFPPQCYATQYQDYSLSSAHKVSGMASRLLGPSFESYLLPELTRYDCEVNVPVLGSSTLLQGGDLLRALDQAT

SMILES: O=[N+]([O-])c1cc(C(F)(F)F)ccc1Nc1cc(F)cc(Cl)c1
- IC50 [1]: 0.28 µM

SMILES: O=S1(=O)c2ccc(Oc3cc(F)cc(Cl)c3)c(C(F)(F)F)c2C(O)C1(F)F (stereo unspecified)
- EC50 [2]: 0.1 µM

SMILES: O=C(O)c1cc(S(=O)(=O)C(F)(F)F)ccc1Oc1cc(F)cc(Cl)c1
- IC50 [1]: 44.4 µM

SMILES: O=S(=O)(c1ccc(Oc2cc(F)cc(Cl)c2)c(CO)c1)C(F)(F)F
- IC50 [1]: 1.2 µM

SMILES: CNS(=O)(=O)c1ccc(Nc2cc(F)cc(Cl)c2)c([N+](=O)[O-])c1
- IC50 [1]: 4.2 µM

SMILES: COCc1c(S(=O)(=O)C(F)F)ccc(Oc2cc(F)cc(Cl)c2)c1Cl
- IC50 [1]: 4.2 µM

SMILES: O=S(=O)(c1ccc(Oc2cc(F)cc(Cl)c2)c(Cl)c1)C(F)(F)F
- IC50 [1]: 0.14 µM
- EC50 [2]: 3.4 µM

SMILES: O=S1(=O)c2ccc(Oc3cc(F)cc(Cl)c3)c(C(F)F)c2C(O)C1(F)F (stereo unspecified)
- EC50 [2]: 0.017 µM

SMILES: N#Cc1c(Oc2cc(F)cc(Cl)c2)ccc2c1C(O)C(F)(F)S2(=O)=O (stereo unspecified)
- IC50 [1]: 0.049 µM
- EC50 [2]: 9.2 µM

SMILES: N#Cc1cc(F)cc(Oc2ccc(S(=O)(=O)C(F)F)c3c2CC(F)(F)[C@H]3O)c1
- clearance [3]: 57.7 mL/min/kg
- fraction unbound at 4 h, 10 µM [4]: 0.06
- bioavailability [5]: 67%
- Vd [6]: 7.4 L/kg
- inhibition [7]: Active
- clearance [8]: 34.3 mL/min/kg
- Activity [9]: Non-Toxic
- Papp A→B at 1 h, 1 µM [10]: 2.84 ×10⁻⁶ cm/s
- Activity [11]: Non-Toxic
- concentration at 12 h [12]: 380 nM
- bioavailability [13]: 6%
- Activity [14]: Active
- half-life [15]: 5.4 h
- Activity [16]: Non-Toxic
- AUC(0-t) [17]: 7.3 µM·h
- CLint scaled at 1 µM [18]: 32.2 mL/min/kg
- inhibition [19]: Active
- Vd [20]: 5.55 L/kg
- Drug uptake [21]: Active
- inhibition [22]: Active
- half-life [23]: 7.3 h
- AUC(0-t) [24]: 0.39 µM·h

SMILES: NCc1c(S(=O)(=O)C(F)F)ccc(Oc2cc(F)cc(Cl)c2)c1Br
- IC50 [1]: 0.7 µM

SMILES: O=S1(=O)CCC(O)c2c1ccc(Oc1cc(F)cc(F)c1)c2C(F)F (stereo unspecified)
- IC50 [1]: 3.2 µM

SMILES: O=S(=O)(c1ccc(Oc2cc(F)cc(Cl)c2)c(Br)c1)C(F)(F)F
- IC50 [1]: 0.17 µM
- EC50 [2]: 3.7 µM

SMILES: O=[N+]([O-])c1cc(S(=O)(=O)C(F)F)ccc1Nc1cc(F)cc(Cl)c1
- IC50 [1]: 0.016 µM

SMILES: Cc1c(Oc2cc(F)cc(Cl)c2)ccc2c1C(O)C(F)(F)S2(=O)=O (stereo unspecified)
- IC50 [1]: 0.02 µM
- EC50 [2]: 0.34 µM

SMILES: COC(=O)c1cc(S(=O)(=O)C(F)(F)F)ccc1Oc1cc(F)cc(Cl)c1
- IC50 [1]: 52.9 µM

SMILES: CS(=O)(=O)c1ccc(Oc2cc(F)cc(C#N)c2)c2c1C(O)C(F)(F)CC2 (racemic)
- IC50 [1]: 3.6 µM

SMILES: O=[N+]([O-])c1c(Nc2cc(F)cc(Cl)c2)ccc2nonc12
- IC50 [1]: 0.49 µM

SMILES: O=S(=O)(c1ccc(Oc2cc(F)cc(Cl)c2)c(Br)c1)C(F)F
- IC50 [1]: 0.18 µM
- EC50 [2]: 2.2 µM

SMILES: N#Cc1cc(F)cc(Oc2ccc(S(=O)(=O)C(F)(F)F)c3c2CC(F)(F)[C@H]3O)c1
- EC50 [2]: < 0.005 µM

SMILES: O=S1(=O)c2ccc(Oc3cc(F)cc(Cl)c3)cc2C(O)C1(F)F (stereo unspecified)
- IC50 [1]: 1.1 µM

SMILES: CC(=O)NCc1c(S(=O)(=O)C(F)F)ccc(Oc2cc(F)cc(Cl)c2)c1Br
- IC50 [1]: 18.2 µM

SMILES: O=[N+]([O-])c1cc(S(=O)(=O)C(F)(F)F)ccc1Oc1cc(F)cc(Cl)c1
- IC50 [1]: 0.032 µM

SMILES: N#Cc1cncc(Oc2ccc3c(c2C(F)F)C(O)C(F)(F)S3(=O)=O)c1 (stereo unspecified)
- IC50 [1]: 0.14 µM
- EC50 [2]: 0.18 µM

SMILES: N#Cc1cc(S(=O)(=O)C(F)(F)F)ccc1Oc1cc(F)cc(Cl)c1
- IC50 [1]: 0.034 µM
- EC50 [2]: 11.6 µM

SMILES: N#Cc1cc(F)cc(Oc2ccc3c(c2C(F)F)C(=O)C(F)(F)S3(=O)=O)c1
- Drug uptake [25]: Active

SMILES: O=S1(=O)CC(O)c2c1ccc(Oc1cc(F)cc(Cl)c1)c2Br (stereo unspecified)
- IC50 [1]: 2.4 µM
- EC50 [2]: 7.2 µM

SMILES: CC(O)c1ccc(Nc2cc(F)cc(Cl)c2)c([N+](=O)[O-])c1 (stereo unspecified)
- IC50 [1]: 12.7 µM

SMILES: N#Cc1cc(F)cc(Oc2ccc(S(=O)(=O)C(F)F)c(C(=O)O)c2C(F)F)c1
- IC50 [1]: > 100 µM

SMILES: O=S(=O)(c1ccc(Oc2cncc(Cl)c2)c2c1[C@H](O)C(F)(F)C2)C(F)F
- fraction unbound at 4 h, 10 µM [4]: 0.06
- bioavailability [5]: 101%
- Vd [6]: 25 L/kg
- inhibition [7]: inactive
- clearance [8]: 58.2 mL/min/kg
- Activity [9]: Non-Toxic
- Papp A→B at 1 h, 1 µM [10]: 2.79 ×10⁻⁶ cm/s
- Activity [11]: Non-Toxic
- concentration at 12 h [12]: 560 nM
- Activity [14]: inactive
- Activity [16]: Non-Toxic
- AUC(0-t) [17]: 5.44 µM·h
- CLint scaled at 1 µM [18]: 20.1 mL/min/kg
- inhibition [19]: inactive
- Drug uptake [21]: Not Active
- inhibition [22]: inactive
- half-life [23]: 5.3 h

SMILES: O=S1(=O)c2ccc(Oc3cncc(Cl)c3)c(C(F)F)c2C(O)C1(F)F (stereo unspecified)
- IC50 [1]: 0.35 µM
- EC50 [2]: 0.63 µM

SMILES: O=[N+]([O-])c1cc(S(=O)(=O)CF)ccc1Nc1cc(F)cc(Cl)c1
- IC50 [1]: 0.28 µM

SMILES: O=S1(=O)c2ccc(Oc3cc(F)cc(Cl)c3)c(Br)c2C(O)C1(F)F (stereo unspecified)
- IC50 [1]: < 0.005 µM
- EC50 [2]: 0.043 µM

SMILES: O=S(=O)(c1ccc(Oc2cc(F)cc(Cl)c2)c2c1C(O)C(F)(F)C2)C(F)F (racemic)
- IC50 [1]: < 0.005 µM
- EC50 [2]: 0.02 µM

SMILES: CS(=O)(=O)c1ccc(Oc2cc(F)cc(Cl)c2)c(Br)c1
- IC50 [1]: 4.4 µM

SMILES: CC1(C)C(O)c2c(ccc(Oc3cc(F)cc(Cl)c3)c2Br)S1(=O)=O (stereo unspecified)
- IC50 [1]: 19.6 µM

SMILES: N#Cc1cc(F)cc(Oc2ccc(S(=O)(=O)CF)c3c2CC(F)(F)[C@H]3O)c1
- clearance [3]: 57.6 mL/min/kg
- fraction unbound at 4 h, 10 µM [4]: 0.11
- bioavailability [5]: 91%
- Vd [6]: 12.6 L/kg
- inhibition [7]: Active
- clearance [8]: 32.3 mL/min/kg
- Activity [9]: Non-Toxic
- Papp A→B at 1 h, 1 µM [10]: 2.73 ×10⁻⁶ cm/s
- Activity [11]: Non-Toxic
- concentration at 12 h [12]: 1100 nM
- EC50 [2]: 0.009 µM
- bioavailability [13]: 32%
- Activity [14]: Active
- half-life [15]: 2.9 h
- Activity [16]: Non-Toxic
- EC50 [26]: 0.02 µM
- AUC(0-t) [17]: 9.46 µM·h
- efflux ratio at 1 h, 1 µM [27]: 1.04
- CLint scaled at 1 µM [18]: 26.9 mL/min/kg
- inhibition [19]: Active
- Vd [20]: 6.15 L/kg
- Drug uptake [21]: Active
- inhibition [22]: Active
- half-life [23]: 5.5 h
- EC50 [28]: 0.182 µM
- AUC(0-t) [24]: 2.14 µM·h

SMILES: NC(=O)c1cc(S(=O)(=O)C(F)(F)F)ccc1Oc1cc(F)cc(Cl)c1
- IC50 [1]: 22.6 µM
